For data set [1] the following is noted: cited from earlier work.
A short description of data set [2]: Krafft temperature (Tk) by differential scanning calorimetry. As to conditions: DSC, aqueous mixture 10% (w/w), heating scan 4 °C to 65 °C, onset of endothermic signal. It is filed as physicochemical. On the procedure: (§1) For each molecule, several samples in 1–2 mL deionized water with various concentrations (between 0.01 mM and 100 mM) were prepared by homogenizing at 500 rpm with a standard magnetic hotplate stirrer MR 3001K (Heidolph Instruments, Schwabach, Germany) for 30 min. The soluble or insoluble character was estimated on the aspect change of corresponding dispersion systems. The concentration limit to obtain an apparently clear solution was noted [C]max. […] This allows the examination of the temperature-driven solubilization behavior and verifies the presence of the Krafft point (Tk), above which the surfactant solubility in water increases abruptly. At Tk, solubility of the surfactant reaches its critical micelle concentration (CMC). In other words, Tk represents the critical temperature at which the micellization process occurs with the dissolution of hydrated surfactant crystals. Thus, Tk can be precisely determined by differential scanning calorimetry (DSC), which has already been proposed by some authors. All of the measurements were performed with a commercial µDSC7 evo calorimeter (SETARAM Instrumentation, Caluire, France). For each molecule, a sample with a concentrated aqueous mixture of 10% (w/w) molecule (C >> CMC) was prepared at 50 °C under magnetic agitation for 30 min to obtain a homogeneous and clear dispersion. These dispersions were then put into a refrigerator at 4 °C for a period over a week, permitting potential phase transitions, including the formation of equilibrated hydrated crystals. Samples of about 300 mg were introduced in the calorimeter cell and equilibrated at 4 °C for 1 h. A heating scan from 4 °C to 65 °C at a rate of 0.5 °C/min was then performed. Tk were identified as the onset of the endothermic signal detected by DSC during the dissolution of hydrated crystals. Tk were calculated as an average of at least two measurements.

Data set [3] is described as follows: Aqueous solubility: concentration limit of apparently clear solution ([C]max) by visual observation. It is filed as physicochemical. As to conditions: for solubility at 30 min: deionized water. On the procedure:
as §1

Data set [4] can be described thus: Equilibrium surface tension at the air-aqueous solution interface (Wilhelmy plate). It is filed as physicochemical. Particulars: water; for Amin (minimal area per molecule at air-aqueous solution interface): calculated from Gibbs equation. Here is the method: The surface activity of the synthesized molecules was studied mainly in terms of their adsorption behavior on the air-aqueous solution interface. The equilibrium surface tensions γ were measured by means of a Wilhelmy plate using a K100 Processor Tensiometer (KRUSS, Hamburg, Germany). The equilibrium surface tension γ was plotted as a function of the log concentration for all molecules, from which we can derive various parameters, like critical micellar concentration (CMC) extrapolated from the break in the surface tension curve and surface tension at the CMC (γcmc). The surface excess (Γmax) and minimal area per molecule at air-aqueous solution interface (Amin) can be calculated from Gibbs equation for non-ionic surfactants: (2) Гmax=−1/2.303RT(dγ/dlogc) and (3) Amin=10^20/NAГmax where R is the ideal gas constant (8.31 J·mol^−1K^−1)’ T is the measuring temperature (K); γ is the surface tension (N·m^−1), c is the concentration (mol·L^−1); Amin is the minimal area per molecule (Å^2); and NA is Avogadro′s number (6.02 × 10^23 mol^−1).
For each molecule, a series of solutions of different concentrations were prepared well above its Krafft Point, either at room temperature of about 25 °C or at 50 °C, under agitation in a water bath for 30 min. Measurements were carried out for each concentration, either at 25 °C for molecules with a Tk below room temperature, or at T > Tk for those with higher Tk values than 25 °C. The standard deviation for temperature is 1 °C.

The mark [5] stands for this setting: room temperature of about 25 °C, visual observation.

As usually defined, the solubility is the concentration that dissolves in the medium under given conditions.

Values after ≈ are worked out from the molar mass of the structure shown. Values joined by “and” are separate entries in the source; they are usually repeats but may differ in a detail not shown here. Equal values may be shown once. “Also recorded” adds a separate entry of the source. Read-outs that look alike come from different tables or passages of the source. Bounds are passed on as bounds.

As for “polyoxyethylene (23) lauryl ether [Brij 35]”, in data set [1], the CMC was 0.03 to 0.09 mM.

Consider `CCCCCCCCOC(=O)C1OC(OC)C(O)C(O)C1O` [compound 7, Octyl (methyl α-D-mannopyranosid)uronate], for which, in data set [2], the “Tk (Krafft Temperature)” value was “no signal; also recorded: undetected”. The solubility at 30 min in data set [3] (setting [5]) was no less than 5000 µM. Further, in data set [3] (water, 25 °C (Table 2)), the “[C]max” value was 5.0 to 6.2 mM. Further, in data set [4] (25 °C), the CMC was 5.5 ± 0.5 mM, the “γcmc (surface tension at the CMC)” value was determined as 28.3 ± 0.3 mN·m^−1 and the “Amin (minimal area per molecule at air-aqueous solution interface)” value is 42.8 ± 2 Å^2/molecule.

Regarding `CCCCCCCCOC(=O)[C@H]1O[C@@H](OC)[C@H](O)[C@@H](O)[C@H]1O` [compound 5, Octyl (methyl β-D-galactopyranosid)uronate], the “Tk (Krafft Temperature)” value in data set [2] was 31 ± 0.9 °C. The “[C]max” value in data set [3] (water, 40 °C (Table 2)) is recorded as greater than 100 mM. Moreover, the “[C]max at T > Tk” value in data set [3] (water, above Krafft temperature (31 °C)) was greater than 100 mM. Besides, in data set [3] (water, room temperature of about 25 °C, visual observation), the “[C]max at ≈25 °C (concentration limit of apparently clear solution)” value was “insoluble”. Besides, in data set [4] (40 °C), the CMC is on record as 6.9 ± 0.4 mM; the “γcmc (surface tension at the CMC)” value is 29.4 ± 0.36 mN·m^−1 and 29.4 ± 0.4 mN·m^−1; the “Amin (minimal area per molecule at air-aqueous solution interface)” value was 42.9 ± 3.9 Å^2/molecule.

Regarding `CCCCCCCCCCCCOC(=O)[C@H]1O[C@H](OC)[C@H](O)[C@@H](O)[C@@H]1O` [3f, Dodecyl (methyl α-D-glucopyranosid)uronate], in data set [2], the “Tk (Krafft Temperature)” value is 22 ± 0.2 °C. For the same compound, the solubility at 30 min in data set [3] (setting [5]) is no less than 30 µM. In data set [3] (water, 25 °C (Table 2)), the “[C]max” value was in the range of 0.03 to 0.05 mM. Further, in data set [4] (25 °C), the CMC came to 0.056 ± 0.004 mM, the “γcmc (surface tension at the CMC)” value is recorded as 28.3 ± 0.3 mN·m^−1 and the “Amin (minimal area per molecule at air-aqueous solution interface)” value is given as 45.6 ± 5 Å^2/molecule.

For “polyethylene glycol tert-octylphenyl ether [Triton X-100]”, the CMC in data set [1] is 0.23 to 0.24 mM.

For the compound “polyoxyethylene sorbitan monolaurate [Tween 20]”, the CMC in data set [1] was 0.050 to 0.059 mM.

As for `CCCCCCCCOC(=O)[C@H]1O[C@H](OC)[C@H](O)[C@@H](O)[C@@H]1O` [3d, Octyl (methyl α-D-glucopyranosid)uronate], in data set [2], the “Tk (Krafft Temperature)” value was “no signal; also recorded: undetected”. In addition, the solubility at 30 min in data set [3] (setting [5]) was no less than 20000 µM. Moreover, the “[C]max” value in data set [3] (water, 25 °C (Table 2)) is 15 to 20 mM. Moreover, in data set [4] (25 °C), the CMC stood at 6.0 ± 0.5 mM, the “γcmc (surface tension at the CMC)” value turned out to be 29.2 ± 0.4 mN·m^−1 and the “Amin (minimal area per molecule at air-aqueous solution interface)” value is on record as 41.0 ± 1 Å^2/molecule.

Consider `CCCCCCOC(=O)[C@H]1O[C@H](OC)[C@H](O)[C@@H](O)[C@@H]1O` [3c, Hexyl (methyl α-D-glucopyranosid)uronate], for which the “Tk (Krafft Temperature)” value in data set [2] is given as “undetected”. The solubility at 30 min in data set [3] (setting [5]) is no less than 50000 µM. For the same compound, the “[C]max” value in data set [3] (water, 25 °C (Table 2)) was 50 to 60 mM. Further, in data set [4] (25 °C), the CMC turned out to be 55 ± 5 mM, the “γcmc (surface tension at the CMC)” value was determined as 30.8 ± 0.8 mN·m^−1 and the “Amin (minimal area per molecule at air-aqueous solution interface)” value is reported as 39.2 ± 2.9 Å^2/molecule.

Consider `CCCCCCCCCCOC(=O)[C@H]1O[C@H](OC)[C@H](O)[C@@H](O)[C@@H]1O` [3e, Decyl (methyl α-D-glucopyranosid)uronate], for which the “Tk (Krafft Temperature)” value in data set [2] is listed as “undetected”. Besides, the solubility at 30 min in data set [3] (setting [5]) is 500 to 750 µM (≈ 174 to 261 µg/mL). In addition, the “[C]max” value in data set [3] (water, 25 °C (Table 2)) fell in the range of 0.5 to 0.75 mM. In addition, in data set [4] (25 °C), the CMC came to 0.65 ± 0.05 mM, the “γcmc (surface tension at the CMC)” value was 28.1 ± 0.1 mN·m^−1 and the “Amin (minimal area per molecule at air-aqueous solution interface)” value is 42.4 ± 2 Å^2/molecule.

These data come from paper PMC6273592, “Catalytic Synthesis of a New Series of Alkyl Uronates and Evaluation of Their Physicochemical Properties” (Molecules, 2016).
